Laboratory results as given in patent US8415312B2, “Compound which is a nystatin derivative” (Biosergen AS, priority 2007, dated 2013).
Where “and” joins values, the source holds several entries; their conditions need not be identical. Equal entries are not always repeated.

Assays:
[1] = system: human blood erythrocytes; assay: In vitro toxicity study, haemolysis (Table 10); format: cell-based; conditions: for Haemolysis of human blood erythrocytes: individual blood samples # 1-3, listed as Amp B
[2] = system: erythrocytes; assay: In vitro toxicity study, haemolysis (Tables 11 and 12); format: cell-based, horse; conditions: for Haemolysis of erythrocytes, Mean ± SE: 5 μg/mL (Table 11); for Haemolysis of erythrocytes: 5 μg/mL, individual blood samples # 1-3 (Table 11)
[3] = Solubility in 5% glucose; format: physicochemical

C[C@@H]1[C@H](O)[C@@H](C)/C=C/C=C/C=C/C=C/C=C/C=C/C=C/[C@H](O[C@@H]2O[C@H](C)[C@@H](O)[C@H](N)[C@@H]2O)C[C@@H]2O[C@](O)(C[C@@H](O)C[C@@H](O)[C@H](O)CC[C@@H](O)C[C@@H](O)CC(=O)O[C@H]1C)C[C@H](O)[C@H]2C(=O)O [Amphotericin B, reference compound]
Haemolysis of human blood erythrocytes, MEAN ± SE ([1]; 2 μg/mL): 6.1 ± 1.0% | Haemolysis of human blood erythrocytes ([1]; 2 μg/mL): 4.4% and 5.9% and 8.0% | Haemolysis of human blood erythrocytes, MEAN ± SE ([1]; 5 μg/mL): 30.3 ± 0.6% | Haemolysis of human blood erythrocytes ([1]; 5 μg/mL): 30% and 29.5% and 31.5% | Haemolysis of erythrocytes, Mean ± SE [2]: 39.7 ± 1.2% | Haemolysis of erythrocytes ([2]; listed as Amp B): 39% and 38% and 42% | solubility in 5% glucose [3]: < 1000 µg/mL

CC1C=CC=CC=CC=CC=CC=CC=CC(OC2OC(C)C(O)C(N)C2O)CC2OC(O)(CC(O)C(O)CCC(O)CC(O)CC(O)CC(=O)OC(C)C(C)C1O)CC(O)C2C(=O)NCCCN(C)C (stereo not drawn) [Compound 11, S44HP DMAP Amide]
Haemolysis of erythrocytes, Mean ± SE [2]: 3.2 ± 0.1% | Haemolysis of erythrocytes [2]: 3% and 3.4% and 3.3%
